How the values were obtained:
[1] = system: Ba/F3-FLT3-ITD; test: MTT assay for cell proliferation; type: cell-based, Murine; details: Mus musculus, Ba/F3 FLT3-ITD, 72 h, read-out: IC50(μM) ± SD, tumor cell proliferation
Description: (§1) For in vitro inhibition assays, cells were seeded in 96-well culture plates with a density of 15,000–20,000 cells/well after the cells reached 70–90% confluence. […] MTT (3-(4, 5-dimethylthiazol-2-yl)-2, 5-diphenyltetrazolium bromide) (Cat. No. 1334GR001; BioFroxx) assay was conducted in order to examine viability. The IC50 values were fitted using GraphPad Prism 7.0.

[2] = system: CD34^+ cells; test: CD34+ cells in peripheral blood of normal mice; type: in vivo; details: normal BALB/c mice; 30 mg/kg p.o. twice a day; Day 0-21
Description: To further understand the effect of FM on normal mice and normal human CD34^+ cells, we conducted a further analysis on CD34^+ cells. For normal mice, we measured the proportion of CD34^+ in the peripheral blood of BALB/c mice on Day 0, and then mice were treated with FM 30 mg/kg p.o. twice a day. […] To investigate the effect of FM on normal human CD34^+ cells, we collected mononuclear cells of PB acquired from healthy donors. […] Therefore, in the future phase I clinical trials, we should examine the myelosuppressive effects of FM in patients with MPN.
(A) Normal BALB/c mice were treated with vehicle and FM 30mg/kg p.o. twice a day. FACS analysis of the percentage of CD34^+ cells on Day 0, 7, 14 and 21 (n = 7). (B) Mononuclear cells were isolated from the PB of healthy donors and CD34^+ cells were analyzed after incubated with FM after 48h.

[3] = system: Ba/F3-JAK2^WT; test: MTT assay for cell proliferation; type: cell-based, Murine; details: Mus musculus, 72 h, read-out: IC50(μM) ± SD, tumor cell proliferation
Description: as §1

[4] = system: Ba/F3-FLT3-ITD^D835V; test: MTT assay for cell proliferation; type: cell-based, Murine; details: Mus musculus, 72 h, read-out: IC50(μM) ± SD, tumor cell proliferation
Description: as §1

Question: `Cc1cnc(Nc2ccc(N3CCC(N(C)CCO)CC3)c(F)c2)nc1-c1cnn(C(C)C)c1` [FM, 2-((1-(2-fluoro-4-((4-(1-isopropyl-1H-pyrazol-4-yl)-5-methylpyrimidin-2-yl)amino)phenyl)piperidin-4-yl)(methyl)amino)ethan-1-ol] was tested. Which IC50 [1] did it give?
Answer: 0.12 ± 0.01 µM

Question: And the “CD34^+ cells in peripheral blood” value [2]?
Answer: significantly inhibited

Question: What about the IC50 [3] of the same compound?
Answer: 0.39 ± 0.2 µM

Question: And the IC50 [4]?
Answer: 0.1 ± 0.06 µM

From PMC8901636, “Preclinical studies of Flonoltinib Maleate, a novel JAK2/FLT3 inhibitor, in treatment of JAK2^V617F-induced myeloproliferative neoplasms” (Blood Cancer Journal, 2022)
